# From patent US6770596B1, “Fused tricyclic compounds, process for their preparation, and herbicidal compositions containing them” (Ishihara Sangyo Kaisha Ltd., priority 2002, dated 2004)
# Key:
# Assay type in all cases: in vivo
# [1] = test system: large crabgrass (Digitaria sanguinalis, DIS); test: Pre-emerge test, large crabgrass; conditions: 250 g ai/ha, 14 days after application, rating scale 0-100 (0 no damage, 100 complete death)
# In short: (§1)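 Pots (10 cm, sandy loam mix) were seeded one day ahead of spraying. Test materials, dissolved in acetone, went on at 8–1000 g ai/ha in a 187 l/ha spray volume. Damage was scored 14 days later from 0 (none) to 100 (total kill).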
# [2] = test system: lambsquarters (Chenopodium album, CHA); test: Post-emerge test, lambsquarters; conditions: 250 g ai/ha, 14 days after application, rating scale 0-100 (0 no damage, 100 complete death)
# In short: (§2)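 Values are visual phytotoxicity ratings on a 0-100 scale taken 14 days after application, where 0 means no damage and 100 complete death. Compounds in acetone with 0.25% v/v non-ionic surfactant were track-sprayed at 187 l/ha, 8-1000 g ai/ha, onto plants at the 2-3 leaf stage.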
# [3] = test system: field corn (Zea mays L., var. Dekalb 535, CORN); test: Pre-emerge test, crop damage field corn; conditions: pre-emerge, 250 g ai/ha, 14 days after application, rating scale 0-100 (0 no damage, 100 complete death)
# In short: (§3)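 Pre-emerge greenhouse screen: sow, wait 1 d, spray acetone solution (8–1000 g ai/ha, 187 l/ha), rate injury 0–100 at 14 DAT.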
# [4] = test system: sicklepod (Cassia obtusifolia, CAO); test: Pre-emerge test, sicklepod; conditions: 250 g ai/ha, 14 days after application, rating scale 0-100 (0 no damage, 100 complete death)
# In short: as §1
# [5] = test system: barnyardgrass (Echinachloa crus-galli, ECC); test: Pre-emerge test, barnyardgrass; conditions: 250 g ai/ha, 14 days after application, rating scale 0-100 (0 no damage, 100 complete death)
# In short: as §1
# [6] = test system: upland rice (Oryza sp., var.Tebonnet, RICE); test: Pre-emerge test, crop damage upland rice; conditions: pre-emerge, 250 g ai/ha, 14 days after application, rating scale 0-100 (0 no damage, 100 complete death)
# In short: as §3
# [7] = test system: sicklepod (Cassia obtusifolia, CAO); test: Post-emerge test, sicklepod; conditions: 250 g ai/ha, 14 days after application, rating scale 0-100 (0 no damage, 100 complete death)
# In short: as §2
# [8] = test system: field corn (Zea mays L., var. Dekalb 535, CORN); test: Post-emerge test, crop damage field corn; conditions: post-emerge, 250 g ai/ha, 14 days after application, rating scale 0-100 (0 no damage, 100 complete death)
# In short: as §2
# [9] = test system: cocklebur (Xanthium strumariunt, XAS); test: Pre-emerge test, cocklebur; conditions: 250 g ai/ha, 14 days after application, rating scale 0-100 (0 no damage, 100 complete death)
# In short: as §1
# [10] = test system: common ragweed (Ambrosia artemisiifolia L., AML); test: Pre-emerge test, common ragweed; conditions: 250 g ai/ha, 14 days after application, rating scale 0-100 (0 no damage, 100 complete death)
# In short: as §1
# [11] = test system: soybean (Glycine max L., var. Pella 86, SOY); test: Pre-emerge test, crop damage soybean; conditions: pre-emerge, 250 g ai/ha, 14 days after application, rating scale 0-100 (0 no damage, 100 complete death)
# In short: as §3
# [12] = test system: wheat (Triticum aestivum); test: Post-emerge test, crop damage wheat; conditions: post-emerge, 250 g ai/ha, 14 days after application, rating scale 0-100 (0 no damage, 100 complete death)
# In short: as §2
# [13] = test system: redroot pigweed (Amaranthus retroflexus, AMR); test: Pre-emerge test, redroot pigweed; conditions: 250 g ai/ha, 14 days after application, rating scale 0-100 (0 no damage, 100 complete death)
# In short: as §1
# [14] = test system: upland rice (Oryza sp., var.Tebonnet, RICE); test: Post-emerge test, crop damage upland rice; conditions: post-emerge, 250 g ai/ha, 14 days after application, rating scale 0-100 (0 no damage, 100 complete death)
# In short: as §2
# [15] = test system: wheat (Triticum aestivum); test: Pre-emerge test, crop damage wheat; conditions: pre-emerge, 250 g ai/ha, 14 days after application, rating scale 0-100 (0 no damage, 100 complete death)
# In short: as §3
# [16] = test system: green foxtail (Setaria viridis, SEV); test: Pre-emerge test, green foxtail; conditions: 250 g ai/ha, 14 days after application, rating scale 0-100 (0 no damage, 100 complete death)
# In short: as §1
# [17] = test system: cocklebur (Xanthium strumariunt, XAS); test: Post-emerge test, cocklebur; conditions: 250 g ai/ha, 14 days after application, rating scale 0-100 (0 no damage, 100 complete death)
# In short: as §2
# [18] = test system: velvetleaf (Abutilon theophrasti, ABT); test: Post-emerge test, velvetleaf; conditions: 250 g ai/ha, 14 days after application, rating scale 0-100 (0 no damage, 100 complete death)
# In short: as §2
# [19] = test system: soybean (Glycine max L., var. Pella 86, SOY); test: Post-emerge test, crop damage soybean; conditions: post-emerge, 250 g ai/ha, 14 days after application, rating scale 0-100 (0 no damage, 100 complete death)
# In short: as §2
# [20] = test system: barnyardgrass (Echinachloa crus-galli, ECC); test: Post-emerge test, barnyardgrass; conditions: 250 g ai/ha, 14 days after application, rating scale 0-100 (0 no damage, 100 complete death)
# In short: as §2
# [21] = test system: green foxtail (Setaria viridis, SEV); test: Post-emerge test, green foxtail; conditions: 250 g ai/ha, 14 days after application, rating scale 0-100 (0 no damage, 100 complete death)
# In short: as §2
# [22] = test system: large crabgrass (Digitaria sanguinalis, DIS); test: Post-emerge test, large crabgrass; conditions: 250 g ai/ha, 14 days after application, rating scale 0-100 (0 no damage, 100 complete death)
# In short: as §2
# [23] = test system: velvetleaf (Abutilon theophrasti, ABT); test: Pre-emerge test, velvetleaf; conditions: 250 g ai/ha, 14 days after application, rating scale 0-100 (0 no damage, 100 complete death)
# In short: as §1
# [24] = test system: common ragweed (Ambrosia artemisiifolia L., AML); test: Post-emerge test, common ragweed; conditions: 250 g ai/ha, 14 days after application, rating scale 0-100 (0 no damage, 100 complete death)
# In short: as §2
# [25] = test system: johnsongrass (Sorghum halepense, SOH); test: Pre-emerge test, johnsongrass; conditions: 250 g ai/ha, 14 days after application, rating scale 0-100 (0 no damage, 100 complete death)
# In short: as §1
# [26] = test system: johnsongrass (Sorghum halepense, SOH); test: Post-emerge test, johnsongrass; conditions: 250 g ai/ha, 14 days after application, rating scale 0-100 (0 no damage, 100 complete death)
# In short: as §2
# [27] = test system: ivyleaf morningglory (Ipomoea hederacea, IPH); test: Pre-emerge test, ivyleaf morningglory; conditions: 250 g ai/ha, 14 days after application, rating scale 0-100 (0 no damage, 100 complete death)
# In short: as §1
# [28] = test system: redroot pigweed (Amaranthus retroflexus, AMR); test: Post-emerge test, redroot pigweed; conditions: 250 g ai/ha, 14 days after application, rating scale 0-100 (0 no damage, 100 complete death)
# In short: as §2
# [29] = test system: lambsquarters (Chenopodium album, CHA); test: Pre-emerge test, lambsquarters; conditions: 250 g ai/ha, 14 days after application, rating scale 0-100 (0 no damage, 100 complete death)
# In short: as §1
# [30] = test system: ivyleaf morningglory (Ipomoea hederacea, IPH); test: Post-emerge test, ivyleaf morningglory; conditions: 250 g ai/ha, 14 days after application, rating scale 0-100 (0 no damage, 100 complete death)
# In short: as §2
Structure (SMILES),Pre-emerge Herbicidal Activity DIS (phytotoxicity rating) [1],Post-emerge Herbicidal Activity CHA (phytotoxicity rating) [2],Pre-emerge crop damage CORN (phytotoxicity rating) [3],Pre-emerge Herbicidal Activity CAO (phytotoxicity rating) [4],Pre-emerge Herbicidal Activity ECC (phytotoxicity rating) [5],Pre-emerge crop damage RICE (phytotoxicity rating) [6],Post-emerge Herbicidal Activity CAO (phytotoxicity rating) [7],Post-emerge crop damage CORN (phytotoxicity rating) [8],Pre-emerge Herbicidal Activity XAS (phytotoxicity rating) [9],Pre-emerge Herbicidal Activity AML (phytotoxicity rating) [10],Pre-emerge crop damage SOY (phytotoxicity rating) [11],Post-emerge crop damage WHEAT (phytotoxicity rating) [12],Pre-emerge Herbicidal Activity AMR (phytotoxicity rating) [13],Post-emerge crop damage RICE (phytotoxicity rating) [14],Pre-emerge crop damage WHEAT (phytotoxicity rating) [15],Pre-emerge Herbicidal Activity SEV (phytotoxicity rating) [16],Post-emerge Herbicidal Activity XAS (phytotoxicity rating) [17],Post-emerge Herbicidal Activity ABT (phytotoxicity rating) [18],Post-emerge crop damage SOY (phytotoxicity rating) [19],Post-emerge Herbicidal Activity ECC (phytotoxicity rating) [20],also measured
CCC1C(=O)Nc2c3c(cc(F)c2-n2c(=O)cc(C(F)(F)F)n(C)c2=O)OCC(=O)N31 (stereo not drawn) [1-4],100,99,100,99,100,99,0,0,100,100,100,25,100,75,100,100,90,100,60,50,Post-emerge Herbicidal Activity SEV (phytotoxicity rating) [21]: 60; Post-emerge Herbicidal Activity DIS (phytotoxicity rating) [22]: 0; Pre-emerge Herbicidal Activity ABT (phytotoxicity rating) [23]: 100; Post-emerge Herbicidal Activity AML (phytotoxicity rating) [24]: 80; Pre-emerge Herbicidal Activity SOH (phytotoxicity rating) [25]: 100; Post-emerge Herbicidal Activity SOH (phytotoxicity rating) [26]: 15; Pre-emerge Herbicidal Activity IPH (phytotoxicity rating) [27]: 100; Post-emerge Herbicidal Activity AMR (phytotoxicity rating) [28]: 0; Pre-emerge Herbicidal Activity CHA (phytotoxicity rating) [29]: 100; Post-emerge Herbicidal Activity IPH (phytotoxicity rating) [30]: 90
O=C1CN2C(=O)COc3cc(F)c(-c4ncc(C(F)(F)F)cc4Cl)c(c32)N1 [1-63],100,100,100,99,100,100,50,20,100,100,50,30,100,75,90,100,100,100,100,100,Post-emerge Herbicidal Activity SEV (phytotoxicity rating) [21]: 100; Post-emerge Herbicidal Activity DIS (phytotoxicity rating) [22]: 80; Pre-emerge Herbicidal Activity ABT (phytotoxicity rating) [23]: 100; Post-emerge Herbicidal Activity AML (phytotoxicity rating) [24]: 45; Pre-emerge Herbicidal Activity SOH (phytotoxicity rating) [25]: 100; Post-emerge Herbicidal Activity SOH (phytotoxicity rating) [26]: 99; Pre-emerge Herbicidal Activity IPH (phytotoxicity rating) [27]: 100; Post-emerge Herbicidal Activity AMR (phytotoxicity rating) [28]: 100; Pre-emerge Herbicidal Activity CHA (phytotoxicity rating) [29]: 100; Post-emerge Herbicidal Activity IPH (phytotoxicity rating) [30]: 100
